# From ChEMBL document CHEMBL5584320, “Pemuchiamides A and B, Proline-Rich Linear Lipopeptides, Isolated from a Marine Hormoscilla sp. Cyanobacterium” (J Nat Prod, 2024)
# How the values were obtained:
# HeLa = experiment: Growth inhibition of human HeLa cells assessed as reduction cell viability incubated for 72 hrs by MTT assay; assay type: functional, cell-based
# HL-60 = experiment: Growth inhibition of human HL-60 cells assessed as reduction cell viability incubated for 72 hrs by MTT assay; assay type: functional, cell-based; settings: HL-60, 72 h
# [1] = test system: Trypanosoma brucei rhodesiense; experiment: Antitrypanosomal activity against blood stream form of Trypanosoma brucei rhodesiense IL-1501 assessed as growth inhibition incubated for 69 hrs by alamar blue staining based microplate fluorescence scanner analysis; assay type: functional, organism-based; settings: IL-1501, 69 h
IC50 (HeLa),IC50 (HL-60),IC50 [1],Compound
290 nM,11 nM,–,COc1cccc2c1C(=O)c1c(O)c3c(c(O)c1C2=O)C[C@@](O)(C(=O)CO)C[C@@H]3O[C@H]1C[C@H](N)[C@H](O)[C@H](C)O1 [DOXORUBICIN]
2900 nM,1400 nM,630 nM,CC[C@H](C)[C@H](NC(=O)[C@@H]1CCCN1C(=O)[C@@H](CC(C)C)NC(=O)[C@H]1CSC([C@@H]2CCCN2C(=O)[C@@H]2CCCN2C(=O)[C@@H](Cc2ccccc2)N(C)C(=O)CNC(=O)[C@@H](NC(=O)CCCNC(=O)CCCc2ccc(O)cc2)C(C)C)=N1)C(=O)N[C@H](Cc1ccccc1)C(=O)N1CCC[C@H]1C(=O)OC
–,–,4 nM,N=C(N)c1ccc(OCCCCCOc2ccc(C(=N)N)cc2)cc1 [PENTAMIDINE]
3900 nM,2100 nM,5400 nM,CC[C@H](C)[C@H](NC(=O)[C@@H]1CCCN1C(=O)[C@@H](CC(C)C)NC(=O)[C@H]1CSC([C@@H]2CCCN2C(=O)[C@@H]2CCCN2C(=O)[C@@H](Cc2ccccc2)N(C)C(=O)CNC(=O)[C@@H](NC(=O)C[C@H](O)CNC(=O)CCCc2ccc(O)cc2)C(C)C)=N1)C(=O)N[C@H](Cc1ccccc1)C(=O)N1CCC[C@H]1C(=O)OC
